From PMC8131363 (Scientific Reports, 2021)
Like-named read-outs stand apart in the source and are kept apart here.

Experiments:
[1] = biological target: T1, cCaSR (Felis catus, UniProt C7FF08)
T1 sequence (C7FF08 1-1081): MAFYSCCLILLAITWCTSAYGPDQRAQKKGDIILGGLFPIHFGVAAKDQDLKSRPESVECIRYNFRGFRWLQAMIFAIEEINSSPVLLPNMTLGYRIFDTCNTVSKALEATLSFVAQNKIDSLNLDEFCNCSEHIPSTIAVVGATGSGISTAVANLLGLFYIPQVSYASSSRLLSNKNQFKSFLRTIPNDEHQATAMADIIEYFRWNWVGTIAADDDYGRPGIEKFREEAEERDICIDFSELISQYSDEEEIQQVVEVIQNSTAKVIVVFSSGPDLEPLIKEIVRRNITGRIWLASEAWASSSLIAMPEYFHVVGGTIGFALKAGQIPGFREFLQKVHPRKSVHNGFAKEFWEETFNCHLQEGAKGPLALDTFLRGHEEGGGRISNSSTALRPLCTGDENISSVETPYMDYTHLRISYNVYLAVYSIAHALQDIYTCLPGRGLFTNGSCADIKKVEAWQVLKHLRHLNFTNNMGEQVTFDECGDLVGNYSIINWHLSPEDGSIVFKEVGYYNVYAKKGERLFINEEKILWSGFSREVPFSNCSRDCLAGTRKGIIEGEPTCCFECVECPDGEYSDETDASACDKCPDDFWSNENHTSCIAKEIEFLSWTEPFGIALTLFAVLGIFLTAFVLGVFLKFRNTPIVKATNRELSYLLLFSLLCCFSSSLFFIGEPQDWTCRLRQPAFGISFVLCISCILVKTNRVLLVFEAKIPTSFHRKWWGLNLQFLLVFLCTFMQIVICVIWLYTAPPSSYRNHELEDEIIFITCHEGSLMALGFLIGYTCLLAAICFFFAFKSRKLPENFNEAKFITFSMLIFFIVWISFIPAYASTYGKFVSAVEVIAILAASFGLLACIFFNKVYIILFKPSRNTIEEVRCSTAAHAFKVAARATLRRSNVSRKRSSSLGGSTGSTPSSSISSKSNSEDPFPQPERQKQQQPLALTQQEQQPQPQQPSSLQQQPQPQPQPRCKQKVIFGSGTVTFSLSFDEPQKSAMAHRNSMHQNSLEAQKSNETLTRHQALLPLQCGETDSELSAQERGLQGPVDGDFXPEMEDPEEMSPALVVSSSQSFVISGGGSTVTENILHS
Protocol: The cCaSR expression constructs were stably-transfected in the mammalian cell line, HEK293/ T-REx/ natClytin. Transfections were performed by electroporation, following standard methodologies. Stably-transfected target and mock pools were obtained after 2–3 weeks of antibiotic selection, and clones were selected for testing. In order to evaluate the activity of each clone, 10 mM Calcium was injected onto the cells and the resulting luminescence was measured.
All compounds screened on the receptor were analysed in parallel with Calcium, on the HEK293/ T-REx/ natClytin-cCaSR or hCaSR stable or transient cell lines. Prior to the measurements, the cells were incubated with 10 µM of photoprotein substrate, Coelenterazine, prepared in Calcium-free Tyrode’s buffer at 37 °C for 3–4 h. All the data was captured using a FLIPR Tetra (Molecular Devices). A single or double injection protocol was used to capture the data for potential agonists and PAMs, respectively. The compounds tested were all prepared at desired concentration in Calcium-Free Tyrode’s buffer supplemented with 0.5% DMSO. For the activity determination of potential agonists, the single injection protocol was used, with CaCl2 as the positive control for each run. Each compound was injected into specific wells and the luminescence signal was measured for 1 min. for each compound. For potential PAMs, the double injection protocol was used. The first injection was identical to the one described above for potential agonists. A 20 min. resting period followed the first injection and a second injection of 0.5 mM CaCl2 in Calcium-free Tyrode’s buffer was injected to all wells, and the resulting luminescence signal was again measured for 1 min for each compound.
Dose–response curves were established by plotting signal amplitudes versus agonist concentration. For each compound, the % of maximum response was determined using a standard formula as follows:
The half maximal effective concentrations (EC50) were identified by nonlinear regression using a variable slope model with the equation Y = Bottom + (X^Hillslope)*(Top–Bottom)/ (X^HillSlope + EC50^HillSlope), where Y is the agonist concentration, Top and Bottom are the plateaus in the same units as Y and HillSlope is the Slope factor or Hill slope. […] In these cases the EC50 was noted as being higher than the maximum concentration used in the assay.

[2] = biological target: T1, cCaSR; assay: cCaSR PAM luminescence assay, double injection with 0.5 mM CaCl2, HEK293/T-REx/natClytin-cCaSR; details: for EC50: read-out: EC50 PAM, positive allosteric modulator, presence of Ca2+
[3] = Supplementary Table I, agonist assay, dash = no activity
[4] = Supplementary Table I, PAM assay, dash = no activity
[5] = read-out: cCaSR activity, agonist assay, stable inducible cCaSR line, at least three wells

| Compound | EC50 Ago (M) [1, 3] | EC50 PAM (M) [2, 4] | other results |
| --- | --- | --- | --- |
| N[C@@H](C[Se][Se]C[C@H](N)C(=O)O)C(=O)O.O [L-Selenocystine monohydrate] | - | - |  |
| CC(NCC1Cc2ccccc2O1)c1ccc2ccccc2n1 (stereo not drawn) [Enamine Screening - Z1437387381] | - |  | EC50 ([2]; Supplementary Table I): 9.01 µM |
| NCCNCCNCCN [Triethylenetetramine] |  |  | EC50 Ago (M) [1]: - |
| Cc1ccc(C2(CCNC(C)c3ccc(Cl)cc3)CCOC(C)(C)C2)cc1 (stereo not drawn) [Vitas M Labs Express Pick - STK530456] | - |  | EC50 ([2]; Supplementary Table I): 26.1 µM |
| CO[C@H]1[C@H](O)[C@@H](CO)OC(O)[C@@H]1O (stereo partly drawn) [3-O-Methyl-D-glucopyranose] | - | - |  |
| N[C@@H](CCO)C(=O)O [L-Homoserine] | - | - |  |
| NC(=O)CC[C@H](N)C(=O)O [L-Glutamine] | - | - |  |
| O=C(O)[C@@H]1CNCCN1 [S-piperazine-2-carboxylic acid] | - | - |  |
| O=C(O)c1cc2c(cn1)[nH]c1ccccc12 [9H-pyrido[3,4-b]indole-3-carboxylic acid] | - | - |  |
| N[C@@H](CCC(=O)N[C@@H](Cc1cnc[nH]1)C(=O)O)C(=O)O [γ-Glu-His] | - | - |  |
| C[C@@H](NCc1cc2ccccc2[nH]1)c1cccc2ccccc12 [Calindol, reference compound] | - |  |  |
| OCC(CNC1CCCOc2cc(Cl)ccc21)Cc1ccccn1 (stereo not drawn) [Enamine Screening - Z1589915397] | - |  | EC50 ([2]; Supplementary Table I): 122 µM |
| [Sr+2] [Sr^2+] |  | - | EC50 [1, 5]: > 10000 µM |
| N[C@H](CCC(=O)O)C(=O)O [D-Glutamic acid] | - | - |  |
| NC(CCCC(N)C(=O)O)C(=O)O (stereo not drawn) [2,6-Diaminopimelic acid] | - | - |  |
| C[C@@H](N[C@H]1CCCC[C@@H]1NC(=O)c1ccc(Cl)cc1)c1cccc2ccccc12 [Calhex 231, reference compound] | - | - |  |
| O=C(O)[C@@H]1C[C@@H](O)CN1 [Hydroxyproline] | - | - |  |
| NC[C@@H]1O[C@H](O[C@H]2[C@@H](O)[C@H](O[C@@H]3[C@@H](O)[C@H](N)C[C@H](N)[C@H]3O[C@H]3O[C@H](CN)[C@@H](O)[C@H](O)[C@H]3N)O[C@@H]2CO)[C@H](N)[C@@H](O)[C@@H]1O [Neomycin, reference compound] |  | - |  |
| CSCC[C@H](N)C(=O)O [L-Methionine] |  |  | EC50 Ago (M) [1]: -; EC50 PAM (M) [2]: - |
| NCC(=O)O [Glycine] | - | - |  |
| C[C@@H](O)C(=O)SC[C@H](NC(=O)CC[C@H](N)C(=O)O)C(=O)NCC(=O)O [S-Lactoylglutathione] |  | - |  |
| N[C@@H](CCC(=O)NCC(=O)NCC(=O)O)C(=O)O [γ-Glu-Gly-Gly] | - | - |  |
| N[C@@H](CCCCNC(=O)CC[C@H](N)C(=O)O)C(=O)O [γ-Glu-Lys] | - | - |  |
| O=C(O)[C@@H]1CCCN1 [L-Proline] | - | - |  |

| Compound | EC50 Ago (M) [1, 3] | EC50 PAM (M) [2, 4] | other results |
| --- | --- | --- | --- |
| CC(C)[C@H](N)P(=O)(O)O [(1R)-(+)-(1-Amino-2-methylpropyl)phosphonic acid] |  |  | EC50 Ago (M) [1]: -; EC50 PAM (M) [2]: - |
| Cc1ccc(C(C)(O)c2nc3ccccc3s2)c(C)c1 (stereo not drawn) [AC-265347, reference compound] | - |  |  |
| O=P(O)(O)C(Cl)(Cl)P(=O)(O)O [Dichloromethylenediphosphonic acid] | - | - |  |
| OC[C@H]1O[C@H](O[C@]2(CCl)O[C@H](CCl)[C@@H](O)[C@@H]2O)[C@H](O)[C@@H](O)[C@H]1Cl [Sucralose] | - | - |  |
| CN[C@H]1C[C@@H](N)[C@H](O)[C@@H](O[C@@H]2O[C@H](CO)[C@H](O)[C@@H]3OC4(O[C@H]23)O[C@H]([C@@H](N)CO)[C@H](O)[C@H](O)[C@H]4O)[C@@H]1O (stereo partly drawn) [Hygromycin B, reference compound] | - | - |  |
| CC(=O)N1C=Cc2ccccc2C1CC(=O)NC(C)c1cccc(Br)c1 (stereo not drawn) [Enamine Screening - Z336933272] | - |  | EC50 ([2]; Supplementary Table I): 12.1 µM |
| CC(C)C1NC(C(=O)O)Cc2c1[nH]c1ccccc21 (stereo not drawn) [1-isopropyl-2,3,4,9-tetrahydro-1H-pyrido[3,4-b]indole-3-carboxylic acid] | - | - |  |
| CC[C@H](C)[C@H](N)C(=O)O [L-Isoleucine] | - | - |  |
| COc1cc(C(O)(c2nc3ccccc3s2)C(F)(F)F)c(OC)cc1N (stereo not drawn) [Enamine Screening - Z317045236] | - |  | EC50 ([2]; Supplementary Table I): 2.42 µM |
| NC(CCCCCCCCCC(=O)O)C(=O)O (stereo not drawn) [2-aminododecanedioic acid] | - | - |  |
| C[C@@H](O)[C@H](N)C(=O)O [L-Threonine] | - | - |  |
| CC(=O)[O-].CC(=O)[O-].CC(=O)[O-].O.[Tb+3] [Tb^3+, Terbium(III) acetate hydrate] |  | - | EC50 ([1]; agonist assay, stable inducible cCaSR line, > 0.01 M = maximal response not reached): 175 µM; EC50 ([1]; read-out: EC50 Ago, Supplementary Table I, agonist assay, > 0.01 M = maximal response not reached): 175 µM; EC50 [1, 5]: < 1000 µM |
| N[C@@H](CCP(=O)(O)O)C(=O)O [L-2-Amino-4-phosphonobutyric acid] | - | - |  |
| c1ccc(C2CCN(C3CCCc4ccccc43)C2)cc1 (stereo not drawn) [Enamine Screening - Z1627256025] | - |  | EC50 ([2]; Supplementary Table I): 797 µM |
| NCCCCCN [Cadaverine] | - | - |  |
| N[C@@H](CO)C(=O)O [L-Serine] | - | - |  |
| COC(=O)[C@@H](N)CCCNC(=N)N[N+](=O)[O-].Cl [Nω-Nitro-L-arginine methyl ester hydrochloride] | - | - |  |
| NC(=O)CC[C@H](NC(=O)[C@H](CCC(=O)O)NC(=O)CC[C@H](N)C(=O)O)C(=O)O [γ-Glu-Glu-Gln] |  | - |  |
| [Ba+2].[Cl-].[Cl-] [Ba^2+, Barium chloride dihydrate] |  |  | EC50 [1]: 1170 µM; EC50 ([1]; read-out: EC50 Ago): 1170 µM; EC50 ([1]; read-out: cCaSR activity): 1000 to 10000 µM |
| N[C@]1(C(=O)O)C[C@H](C(=O)O)C1 [1s,3s-1-aminocyclobutane-1,3-dicarboxylic acid] |  | - |  |
| O.O.[Ba+2].[Cl-].[Cl-] [Ba^2+, Barium chloride dihydrate] |  |  | EC50 PAM (M) [2]: - |
| N[C@@H](CCC(=O)N[C@@H](CCC(=O)O)C(=O)N[C@@H](CCC(=O)O)C(=O)O)C(=O)O [γ-Glu-Glu-Glu] |  | - |  |
| Poly-L-ornithine |  | - |  |
